The subject of series [1] is D(II) domain of fibroblast growth factor receptor 1 (FGFR1). Kind of series: Microplate thermal shift assay for ligands binding to D(II) FGFR1, fluorescence emission signal. Details: species or system human. To be noted: D(II) FGFR1 70 μM; 136 μM ANS; ligand 150-156 μM. An excerpt: The microplate thermal-shift assay was employed to test the binding of heparin 5000 and pentosan PSO4 to the known heparin binding site in the D(II) domain of fibroblast growth factor receptor 1 (FGFR1). D(II) FGFR1 is a 124 residue domain which is responsible for most of the free energy of binding for bFGF. D(II) FGFR1 was cloned and expressed in E. coli. Recombinant D(II) FGFR1 was renatured from inclusion bodies essentially as described (Wetmore, D. R. et al., Proc. Soc. Mtg., San Diego, Calif. (1994)), except that a hexa-histidine tag was included at the N-terminus to facilitate recovery by affinity chromatography on a Ni^2+ chelate column (Janknecht, R. et al., Natl. Acad. Sci. USA 88:8972-8976 (1991)). D(II) FGFR1 was further purified on a heparin-sepharose column (Kan, M. et al., Science 259:1918-1921 (1993); Pantoliano, M. W. et al., Biochemistry 33:10229-10248 (1994)). […]
The D(II) FGFR1 protein was dissolved in an ANS solution to a concentration of 1.0 mg/mL (70 μM). […] Because ANS fluorescence is very environment dependent (see Lakowicz, I. R., Principles of Fluorescence Spectroscopy, Plenum Press, New York (1983)), the quantum yield observed for the denaturation of different proteins will vary. […] A similar result was obtained for Factor Xa, except that the fluorescence quantum yield for ANS bound to denatured Factor Xa was almost as good as it was for human α-thrombin.

Series [2] addresses T1, acidic fibroblast growth factor (aFGF) (Homo sapiens, UniProt P05230).
T1 construct: host or cells: E. coli
Nature of the series: Microplate thermal shift assay for ligands binding to aFGF, turbidity signal. To be noted: turbidity signal; aFGF 0.25 mg/mL; ligand 47-200 μM. An excerpt:
The second therapeutic receptor tested in the microplate thermal shift assay was acidic fibroblast growth factor (aFGF), a growth factor that plays a key role in angiogenesis (Folkman, J. et al., J. Biol. Chem. 267:1.0931-10934 (1992)). A synthetic gene for this protein was purchased from R&D Systems (Minneapolis, Minn.), and was cloned and expressed in E. coli using methods similar to those described for basic fibroblast growth factor (bFGF) (Thompson, L. D. et al., Biochemistry 33:3831-3840 (1994); Pantoliano, M. W. et al., Biochemistry 33:10229-10248 (1994); Springer, B. A. et al., J. Biol. Chem. 269:26879-26884 (1994)). Recombinant aFGF was then purified by heparin-sepharose affinity chromatography as described (Thompson, L. D. et al., Biochemistry 33:3831-3840 (1994)). aFGF is also known to bind heparin/heparan, which is a cofactor for mitogenic activity. […] A microplate thermal assay of these compounds was set up in a way similar to that described above for human α-thrombin. […] The affinity constants covered a fairly broad range of binding affinities, with pentosan PSO4 showing the highest affinity.

The conditions of series [3]: many described as coagulation anomalies; cited from earlier work.
Series [4] concerns the target T2, heparin binding site of human α-thrombin (Homo sapiens, UniProt P00734).
T2 construct: A stock human α-thrombin solution (1.56 mg/mL) from Enzyme Research Labs; purchased Enzyme Research Labs
Nature of the series: Microplate thermal shift assay, ligands binding to the heparin binding site, turbidity signal. The text has this:
Assays for ligands that bind to the heparin binding site of human α-thrombin are more difficult to perform than assays for ligands that bind to the active site of human α-thrombin. At the heparin binding site, no substrate is hydrolyzed, so no spectrophotometric signal can be amplified for instrumental detection. Heparin activity is usually estimated in biological clotting time assays. […] Thus, heparin binding to human α-thrombin represents the kind of challenge encountered with the vast majority of non-enzyme receptor/ligand binding events, which are commonly observed for hormone/receptor interactions, repressor/DNA interactions, neurotransmitter/receptor interactions, etc. Several heparin-like sulfated oligosaccharides and sulfated naphthalene compounds were assayed by the microplate thermal shift assay. Using the thermal shift assay, it was possible to use a single compound per well to quickly rank the compounds in order of increasing binding affinity, with Kd's ranging over three orders of magnitude (see Table 4). Like the experiment in Example 1, the thermal shift assay results agreed closely with the results obtained through an alternative method, which required a series of laborious (15 to 20 single determinations) fluorescence quench assays over a wide range of concentrations of low MW heparin (Olson, S. T. et al., J. Biol. Chem. 266:6342-6352 (1991)).

In a further series the target is bFGF (Homo sapiens, UniProt P09038). To be noted: read-out: affinity for binding to bFGF by isothermal titrating calorimetry; cited from earlier work.
bFGF, sequence (P09038 134-288): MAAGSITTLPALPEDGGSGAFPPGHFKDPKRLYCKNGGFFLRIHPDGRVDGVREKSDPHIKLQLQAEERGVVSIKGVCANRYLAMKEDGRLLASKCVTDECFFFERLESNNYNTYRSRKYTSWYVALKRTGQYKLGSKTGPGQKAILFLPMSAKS

T1 sequence (P05230 whole entry, species assumed): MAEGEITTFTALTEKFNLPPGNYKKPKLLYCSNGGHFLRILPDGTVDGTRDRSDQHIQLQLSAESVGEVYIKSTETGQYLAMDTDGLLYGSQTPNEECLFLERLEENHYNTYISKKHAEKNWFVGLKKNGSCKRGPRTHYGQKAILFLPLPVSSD
D(II) domain of fibroblast growth factor receptor 1 (FGFR1), sequence (P11362 158-246 limits assumed): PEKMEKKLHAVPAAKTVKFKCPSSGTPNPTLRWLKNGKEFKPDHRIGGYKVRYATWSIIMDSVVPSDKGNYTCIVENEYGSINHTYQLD

pentosan polysulfate [Pentosan PSO4]: the Tm was 319.4 °K in series [1]; 336.15 °K in series [2]; 332.15 °K in series [4] (turbidity signal, 11 μM thrombin, ligand 40-102 μM). The “outcome of clinical trials for antiangiogenic activity” value in series [3] was “discounted due to toxic effects”. Besides, the “affinity at Tm higher than the affinity of heparin 5000” value in series [4] (thermal shift assay, Table 4) turned out to be 7 fold. In addition, the Kd on bFGF was 88 nM.

(Values after patent US6569631B1, “Microplate thermal shift assay for ligand development using 5-(4″dimethylaminophenyl)-2-(4′-phenyl)oxazole derivative fluorescent dyes” (3-Dimensional Pharmaceuticals, Inc., priority 1998, dated 2003).)
